Measurements from ChEMBL document CHEMBL1201862, “PubChem BioAssay data set” (2004).
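Growth conditions: 96-well plates. Treatment: test compound, 48 hours, 5 concentrations. Analysis: linear interpolation between bracketing concentrations; unreached endpoints set to highest concentration. Abbreviation: GI50, concentration required for 50% inhibition of growth.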 The source made the active and inactive calls. Cut-off read from the data, not from the text of the source: active = GI50 up to about 1.1 µM and inactive = higher.

Assays:
Assay in all cases: NCI anticancer screen, dose series, 48 h
NCI-H226 = system: NCI-H226
MOLT-4 = system: MOLT-4
TK-10 = system: TK-10
HCC 2998 = system: HCC 2998
SNB-19 = system: SNB-19
HCT-15 = system: HCT-15
SF-295 = system: SF-295
RXF 393 = system: RXF 393
MDA-N = system: MDA-N
SK-MEL-5 = system: SK-MEL-5
UO-31 = system: UO-31
NCI-H522 = system: NCI-H522
SF-268 = system: SF-268
Hs-578T = system: Hs-578T
SR = system: SR
SNB-75 = system: SNB-75
NCI/ADR-RES = system: NCI/ADR-RES
SK-MEL-2 = system: SK-MEL-2
COLO 205 = system: COLO 205

Structure (SMILES)	GI50 (NCI-H226)	GI50 (MOLT-4)	GI50 (TK-10)	GI50 (HCC 2998)	GI50 (SNB-19)	GI50 (HCT-15)	GI50 (SF-295)	GI50 (RXF 393)	GI50 (MDA-N)	GI50 (SK-MEL-5)	GI50 (UO-31)	GI50 (NCI-H522)	GI50 (SF-268)	GI50 (Hs-578T)	GI50 (SR)	GI50 (SNB-75)	GI50 (NCI/ADR-RES)	GI50 (SK-MEL-2)	GI50 (COLO 205)
Cc1cc(C)c2c(c1)C/C(=C\c1ccccc1C(=O)O)C2=O	56.9 µM (inactive)	76.4 µM (inactive)	> 100 µM (inactive)	33.5 µM (inactive)	> 100 µM (inactive)	47.4 µM	> 100 µM (inactive)	51.9 µM (inactive)	> 100 µM (inactive)	82.4 µM (inactive)	73.3 µM (inactive)	66.2 µM (inactive)	> 100 µM (inactive)	> 100 µM (inactive)	> 100 µM (inactive)	75.3 µM (inactive)	–	–	–
C[C@H](O)C1CC(Cn2nnc3c(N)ncnc32)C1(C)C (some centres not stated)	> 100 µM (inactive)	–	> 100 µM (inactive)	> 100 µM (inactive)	> 100 µM (inactive)	> 100 µM	> 100 µM (inactive)	> 100 µM (inactive)	> 100 µM (inactive)	> 100 µM (inactive)	> 100 µM (inactive)	–	> 100 µM (inactive)	> 100 µM (inactive)	–	> 100 µM (inactive)	> 100 µM (inactive)	> 100 µM (inactive)	–
COc1cc(/C=N\NC(=O)C[N+](C)(C)C)cc(OC)c1OC	–	> 10 µM (inactive)	> 10 µM (inactive)	> 10 µM (inactive)	> 10 µM (inactive)	> 10 µM	> 10 µM (inactive)	–	> 10 µM (inactive)	> 10 µM (inactive)	–	> 10 µM (inactive)	> 10 µM (inactive)	> 10 µM (inactive)	> 10 µM (inactive)	> 10 µM (inactive)	> 10 µM (inactive)	–	> 10 µM (inactive)
COc1ccc(C2=NOC(N)(c3ccc(OC)cc3)C2)cc1 (configuration not stated)	> 100 µM (inactive)	> 100 µM (inactive)	> 100 µM (inactive)	> 100 µM (inactive)	> 100 µM (inactive)	> 100 µM	> 100 µM (inactive)	–	> 100 µM (inactive)	56.9 µM (inactive)	> 100 µM (inactive)	> 100 µM (inactive)	–	81.1 µM (inactive)	> 100 µM (inactive)	> 100 µM (inactive)	> 100 µM (inactive)	> 100 µM (inactive)	> 100 µM (inactive)
O=C1CSC(c2cccc(Cl)c2)N1c1ccc(-n2c(-c3ccccc3)nc3ccccc3c2=O)cc1 (configuration not stated)	–	5.47 µM (inactive)	> 100 µM (inactive)	43.7 µM (inactive)	> 100 µM (inactive)	15.8 µM	> 100 µM (inactive)	–	> 100 µM (inactive)	47 µM (inactive)	3.22 µM (inactive)	43.3 µM (inactive)	8.07 µM (inactive)	39.3 µM (inactive)	7.66 µM (inactive)	–	25.5 µM (inactive)	> 100 µM (inactive)	> 100 µM (inactive)
Cc1nc2ccccc2n1Cc1ccc(NC(=S)NC2CCCCC2)cc1	24.9 µM (inactive)	5.36 µM (inactive)	> 100 µM (inactive)	36.6 µM (inactive)	32.8 µM (inactive)	8.95 µM	10.1 µM (inactive)	23.8 µM (inactive)	5.79 µM (inactive)	4.14 µM (inactive)	41 µM (inactive)	8.34 µM (inactive)	17.2 µM (inactive)	29 µM (inactive)	–	24 µM (inactive)	35.6 µM (inactive)	15.7 µM (inactive)	31.1 µM (inactive)
C[C@H]1OC(=O)[C@@H]2N=NN(Cc3ccccc3)[C@H]12	–	> 100 µM (inactive)	> 100 µM (inactive)	> 100 µM (inactive)	> 100 µM (inactive)	> 100 µM	> 100 µM (inactive)	> 100 µM (inactive)	> 100 µM (inactive)	> 100 µM (inactive)	> 100 µM (inactive)	> 100 µM (inactive)	> 100 µM (inactive)	–	> 100 µM (inactive)	–	> 100 µM (inactive)	> 100 µM (inactive)	> 100 µM (inactive)
Cc1ccc(/N=N/C(=NNC(=O)c2ccc(C)cc2)c2ccc(N(C)C)cc2)cc1	23.8 µM (inactive)	33 µM (inactive)	64.7 µM (inactive)	27.4 µM (inactive)	24.8 µM (inactive)	28.7 µM	26.4 µM (inactive)	–	19.8 µM (inactive)	15.5 µM (inactive)	26.1 µM (inactive)	20.9 µM (inactive)	38.5 µM (inactive)	28.1 µM (inactive)	17.9 µM (inactive)	–	41.3 µM (inactive)	38.3 µM (inactive)	12.3 µM (inactive)
CN1CCN(C(=S)N(C(=O)c2cccs2)C2CCCCC2)CC1	> 100 µM (inactive)	> 10 µM (inactive)	> 100 µM (inactive)	> 100 µM (inactive)	> 100 µM (inactive)	> 100 µM	> 10 µM (inactive)	> 100 µM (inactive)	> 100 µM (inactive)	> 100 µM (inactive)	> 100 µM (inactive)	> 100 µM (inactive)	> 100 µM (inactive)	> 100 µM (inactive)	> 100 µM (inactive)	89.9 µM (inactive)	–	> 100 µM (inactive)	> 100 µM (inactive)
CCN(CC)P(=O)(c1ccc2c(c1)OCCOCCOCCOCCO2)N(CC)CC	> 100 µM (inactive)	> 100 µM (inactive)	> 100 µM (inactive)	> 100 µM (inactive)	> 100 µM (inactive)	> 100 µM	> 100 µM (inactive)	–	> 100 µM (inactive)	> 100 µM (inactive)	> 100 µM (inactive)	> 100 µM (inactive)	> 100 µM (inactive)	> 100 µM (inactive)	> 100 µM (inactive)	> 100 µM (inactive)	–	–	> 100 µM (inactive)
O=C1C=CC=C/C1=C1\N=C(c2ccccc2OCC(=O)c2ccc(Br)cc2)SS1	48 µM (inactive)	> 10 µM (inactive)	13.5 µM (inactive)	> 100 µM (inactive)	> 100 µM (inactive)	> 100 µM	28.2 µM (inactive)	30 µM (inactive)	> 100 µM (inactive)	> 100 µM (inactive)	> 100 µM (inactive)	–	32 µM (inactive)	15.2 µM (inactive)	–	8.93 µM (inactive)	> 100 µM (inactive)	42.5 µM (inactive)	> 100 µM (inactive)
O=C(Cc1nc2ccc(C(=O)c3ccccc3)cc2nc1O)C(=O)Nc1ccc(Br)cc1	78.2 µM (inactive)	–	> 100 µM (inactive)	–	–	54.3 µM	> 100 µM (inactive)	> 100 µM (inactive)	39.7 µM (inactive)	> 100 µM (inactive)	57.7 µM (inactive)	48.9 µM (inactive)	> 100 µM (inactive)	53 µM (inactive)	–	38 µM (inactive)	> 100 µM (inactive)	> 100 µM (inactive)	–
Clc1ccc2c(NCCNC3CCCCC3)ccnc2c1	10.6 µM (inactive)	3.48 µM (inactive)	2.7 µM (inactive)	–	15.9 µM (inactive)	5.4 µM	3.34 µM (inactive)	8.95 µM (inactive)	2.29 µM (inactive)	1.62 µM (inactive)	2.95 µM (inactive)	2.67 µM (inactive)	9.64 µM (inactive)	2.54 µM (inactive)	–	4.63 µM (inactive)	11.4 µM (inactive)	3.22 µM (inactive)	1.36 µM (inactive)
